Values of other authors, collected in patent US20230363996A1, “HAIR CARE COMPOSITION” (Conopco, Inc., d/b/a UNILEVER, priority 2020, published 2023).

conditions: organic/aqueous partition

Row | SMILES | log P
1 | O=C(c1ccccc1)c1cc(Cl)ccc1O [benzophenone-7] | 4.51
2 | COc1cc(O)c(C(=O)c2ccccc2)cc1S(=O)(=O)O [Benzophenone-4, reference compound] | Benzophenone-4 (logP = 0.99)
3 | COc1ccc(C(=O)c2ccccc2)c(O)c1 [benzophenone-3] | 3.99
4 | COc1ccc(C(=O)c2ccc(OC)cc2O)c(O)c1 [benzophenone-6] | 4.78
5 | O=C(c1ccccc1)c1ccc(O)cc1O [benzophenone-1] | 3.15
6 | COc1ccc(C(=O)c2ccccc2O)c(O)c1 [benzophenone-8] | 4.31
7 | COc1ccc(C(=O)c2ccc(C)cc2)c(O)c1 [benzophenone-10] | 4.66
8 | O=C(c1ccc(O)cc1O)c1ccc(O)cc1O [benzophenone-2] | 3.09
